In patent publication US9393284B2, “Visfatin therapeutic agents for the treatment of acne and other conditions” (ARAVA BIO-TECH LTD., priority 2009, dated 2016):
Ends that are not written are not given here. * marks the point of attachment. Myristoyl = CCCCCCCCCCCCCC(=O)*

What was measured:
sebum production = conditions: background statement; cited from earlier work
sebaceous glands = experiment: Sebum production and maturation of sebaceous glands in newborn BalbC mice topically treated with visfatin antagonist siRNAs (Oil Red O, H&E, gland counts); type: in vivo, Mus musculus; conditions: siRNA free second control solution (PBS, 0.1% DMSO, 1 μg/ml MPDY), day 5 after birth
Description: Hematoxylin & Eosin Staining: Paraffin embedded skin biopsy section slides were incubated at 60° C. for 60 minutes and deparaffinized by washing the slides twice with toluene (100%) for 10 minutes and rehydrating the skin biopsy section slides in decreasing concentration of ethanol (100-50%) for 5 minutes each. The slides then were stained with a ready to use solution of hematoxylin for 5 minutes, rinsed with water, stained with eosin (0.5% in double distilled water) for 1.5 minutes and washed twice by rapid immersion in 70% ethanol. Thereafter, the slides were dehydrated by washing once with 95% ethanol for 5 minutes, twice with 100% ethanol for 5 minutes and twice with xylene (100%) for 10 minutes. This was followed by the application of ENTELLAN™ (Merck KGaA, Darmstadt, Germany) and the mounting of coverslips.
Oil Red O Staining: Frozen skin biopsy section slides were fixed in 1% neutral-buffered formalin for 5 minutes, washed in deionized water, and incubated in 60% isopropanol for 5 minutes. Skin biopsy section slides were stained with a fresh, filtered Oil Red O working solution which had been prepared immediately beforehand by making a 2:3 mixture of stock (0.5% Oil Red O in 99% isopropanol) and deionized water. […]

## CC1=C(/C=C/C(C)=C/C=C/C(C)=C\C(=O)O)C(C)(C)CCC1 [Isotretinoin]
Sebum production
  decrease of sebum production: up to 90%

## MPDY: cationic, lipophilic, N-myristoylated peptide having the amino acid sequence FARKGALRQ (SEQ ID NO: 27) (Myristoyl-FARKGALRQ)
Sebaceous glands
  effect of peptide alone on sebum production and skin: did not inhibit sebum production or otherwise discernibly alter the skin
